Measurements from patent US4293557A, “Antiulcer phenoxypropylamine derivatives” (Teikoku Hormone Mfg. Co., Ltd., priority 1979, dated 1981).

molecular target: T1, histamine H2 receptor (Cavia porcellus, UniProt P47747); experiment: Measurement of histamine H2 receptor antagonizing activity (isolated right atrium, histamine dose-response of heart beat); parameters: species or system Hartley; settings: isolated guinea pig right atrium; test compound 1×10^-5 M; negative logarithm of molar concentration required to double the histamine concentration; Van Rossum method
T1 construct: histamine-induced chronotropic response, pA2
T1 sequence (P47747 whole entry): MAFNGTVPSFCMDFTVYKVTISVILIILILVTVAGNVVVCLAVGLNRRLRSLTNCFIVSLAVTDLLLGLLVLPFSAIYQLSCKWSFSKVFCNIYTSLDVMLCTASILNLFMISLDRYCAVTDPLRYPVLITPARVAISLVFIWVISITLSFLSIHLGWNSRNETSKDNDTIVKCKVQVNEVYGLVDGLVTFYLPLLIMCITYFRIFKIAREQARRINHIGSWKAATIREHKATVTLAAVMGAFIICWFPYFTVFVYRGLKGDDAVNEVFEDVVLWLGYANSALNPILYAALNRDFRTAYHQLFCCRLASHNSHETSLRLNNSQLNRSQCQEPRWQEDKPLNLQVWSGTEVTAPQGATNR
Experimental: (1) Measurement of histamine H2 receptor antagonizing activity
A guinea pig, Hartley, (male 400-550 g) was struck at the head to let out blood, and the heart was enucleated. The right atrium was separated in a Tyrod solution saturated with oxygen, and a silk thread was attached to its both ends. Using the silk threads at both ends, the atrium was suspended under a tension of 700 mg in a Magnus tube (25 ml) containing a Tyrod solution maintained at 36° C. through which mixture of 95% of O2 and 5% of CO2 was passed. The contracting motion of the atrium was recorded by a force-displacement transducer, and the number of heart beats was calculated.
Histamine (used in the form of diphosphate; the same hereinbelow) was cumulatively added to the Magnus tube in a concentration of 1×10^-8 M to 1×10^-4 M in such an amount that the logarithm of the amount provides an equal interval of 1/2, until a maximum increase in heart beat was obtained. Thus, the dose-response curve of histamine was obtained. The inside of the Magnus tube was washed several times with a Tyrod solution, and the atrium was stabilized for 1 hour. Then, the above procedure was repeated to obtain the dose-response curve of histamine again. The inside of the Magnus tube was washed several times, and the tissues were stabilized for 50 minutes. Then, a test compound (1×10^-5 M) was added to the Magnus tube, and after 20 minutes, the dose-response curve of histamine in the presence of the test compound was obtained.
The PA2 value (the negative logarithm of the molar concentration of the test compound required to double the concentration of histamine in the Magnus tube required to induce a certain reaction) was calculated from the dose-response curve of histamine obtained in the second operation and the dose-response curve of histamine in the presence of the test compound in accordance with the method of J. M. Van Rossum (Arch. int. Pharmacodyn., 143, 299, 1963).

First: O=C(COC(=O)c1ccc(Cl)c(Cl)c1)NCCCOc1cccc(CN2CCCCCC2)c1 [U, N-(3,4-Dichlorobenzoyloxyacetyl)-3-[3-(1-perhydroazepinylmethyl)phenoxy]propylamine]
Second: O=C(COC(=O)c1ccccc1)NCCCOc1cccc(CN2CCCCC2)c1 [T, N-[3-[3-(1-Piperidinylmethyl)phenoxy]propyl]benzoyloxyacetamide]
The PA2 of the first is higher: 6.80 for the first, 6.74 for the second.

Going from `CC(c1cccc(OCCCNC=O)c1)N1CCCCCC1` (centres unmarked) [D, N-[3-[3-(1-(1-Perhydroazepinyl)ethyl]phenoxy]propyl]formamide] to `CC(c1cccc(OCCCNC=O)c1)N1CCCC1` (centres unmarked) [A, N-[3-[3-[1-(1-Pyrrolidinyl)ethyl]phenoxy]propyl]formamide], the PA2 falls from 6.14 to 6.12.

Going from `O=C(CO)NCCCOc1cccc(CN2CCCCCC2)c1` [M, N-[3-[3-(1-Perhydroazepinylmethyl)phenoxy]propyl]hydroxyacetamide] to `O=C(CO)NCCCOc1cccc(CN2CCCCC2)c1` [L, N-[3-[3-(1-Piperidinylmethyl)phenoxy]propyl]hydroxyacetamide], the PA2 rises from 6.29 to 6.79.

Compared with `CC(c1cccc(OCCCNC=O)c1)N1CCC(O)C1` (centres unmarked) [E], `CCC(c1cccc(OCCCNC=O)c1)N1CCCC1` (centres unmarked) [B] is higher in PA2: 5.99 for the first, 6.49 for the second.

First: CC(=O)NCCCOc1cccc(CN2CCCCC2)c1 [H, N-[3-[3-(1-Piperidinylmethyl)phenoxy]propyl]acetamide]
Second: COCC(=O)NCCCOc1cccc(CN2CCCCC2)c1 [O, N-[3-[3-(1-Piperidinylmethyl)phenoxy]propyl]methoxyacetamide]
The PA2 of the first is lower: 6.52 for the first, 6.62 for the second.

First: CC(=O)OCC(=O)NCCCOc1cccc(C(C)N2CCCC2)c1 (centres unmarked) [P, N-[3-[3-[1-(1-Pyrrolidinyl)ethyl]phenoxy]propyl]acetoxyacetamide]
Second: CCC(=O)NCCCOc1cccc(C(C)N2CCCC2)c1 (centres unmarked) [J, N-[3-[3-[1-(1-Pyrrolidinyl)ethyl]phenoxy]propyl]propionamide]
The PA2 of the first is higher: 6.11 for the first, 6.04 for the second.

First: CC(=O)NCCCOc1cccc(C(C)N2CCCC2)c1 (centres unmarked) [F, N-[3-[3-[1-(1-Pyrrolidinyl)ethyl]phenoxy]propyl]acetamide]
Second: CC(=O)NCCCOc1cccc(C(C)N2CCCCC2)c1 (centres unmarked) [I, N-[3-[3-[1-(1-Piperidinyl)ethyl]phenoxy]propyl]acetamide]
The PA2 of the first is higher: 6.16 for the first, 5.97 for the second.

Going from `O=CNCCCOc1cccc(CN2CCCCC2)c1` [C, N-[3-[3-(1-Piperidinylmethyl)phenoxy]propyl]formamide] to `CC(=O)OCC(=O)NCCCOc1cccc(CN2CCCCC2)c1` [Q, N-[3-[3-(1-Piperidinylmethyl)phenoxy]propyl]acetoxyacetamide], the PA2 rises from 6.50 to 7.10.

Compared with `CCC(=O)OCC(=O)NCCCOc1cccc(CN2CCCCC2)c1` [S, N-[3-[3-(1-Piperidinylmethyl)phenoxy]propyl]propionyloxyacetamide], `CC(=O)OCC(=O)NCCCOc1cccc(CN2CCCCCC2)c1` [R, N-[3-[3-(1-Perhydroazepinylmethyl)phenoxy]propyl]acetoxyacetamide] is lower in PA2: 6.77 for the first, 6.28 for the second.

Going from `CCC(c1cccc(OCCCNC(C)=O)c1)N1CCCC1` (centres unmarked) [G, N-[3-[3-[1-(1-Pyrrolidinyl)propyl]phenoxy]propyl]acetamide] to `CC(c1cccc(OCCCNC(=O)CO)c1)N1CCCC1` (centres unmarked) [K, N-[3-[3-[1-(1-Pyrrolidinyl)ethyl]phenoxy]propyl]hydroxyacetamide], the PA2 falls from 6.47 to 5.83.

Compound `CC(c1cccc(OCCCNC(=O)CCN)c1)N1CCCC1` (centres unmarked) [N, N-(3-Aminopropionyl)-3-[3-[1-(1-pyrrolidinyl)ethyl]phenoxy]propylamine] has a PA2 of 6.26.

tested on: not listed separately; experiment: in vivo; settings: mouse, oral, 5% Tween 80 suspension, male ddY mice 19-22 g, Litchfield-Wilcoxon method

`CC(c1cccc(OCCCNC=O)c1)N1CCCC1` (centres unmarked) [A, N-[3-[3-[1-(1-Pyrrolidinyl)ethyl]phenoxy]propyl]formamide] and `CC(=O)NCCCOc1cccc(C(C)N2CCCC2)c1` (centres unmarked) [F, N-[3-[3-[1-(1-Pyrrolidinyl)ethyl]phenoxy]propyl]acetamide] are within 1.5-fold of each other in LD50 at 72 h: 2500 mg/kg for the first, 2100 mg/kg for the second.
